Regarding `CCS(=O)(=O)Nc1c(C)cccc1C`, the melting point (in general, the temperature of the solid-liquid transition) was determined as 90 °C.

As to `CN1C(=O)C(NC(=O)CCC2CCCCC2)N=C(c2ccccc2)c2cnccc21` (stereo not drawn), the melting point fell in the range of 170 to 173 °C.

Regarding `CC(=O)C(=Cc1ccc(Cl)c([N+](=O)[O-])c1)C(C)=O`, the melting point was 110 to 111 °C.

Consider `C=CC(=O)N1CCc2cc(OC)c(OC)cc2C12CCC(C(=O)OCC)(C(=O)OCC)CC2C1c2cc(OC)c(OC)cc2CCN1CC` (stereo not drawn), for which the melting point lay within 150 to 151 °C.

In the case of `Oc1ccc2c(c1)C13CCN(CC4CC4)C(C2)C1OCOC3` (stereo not drawn), the melting point was in the range of 193 to 196 °C.

In turn, `C=C1C2=C(CCCC2)C(=O)N1c1ccc(Cl)cc1F` displayed a melting point of 84 to 85.5 °C.

Compound `CCCN(C(=O)Oc1ccccc1)C1Cc2ccc(-c3ccc(=O)[nH]n3)cc2C1` (stereo not drawn) displayed a melting point of 140 to 141 °C.

As for `CN1CCN(c2cccc3nc4n(c(=O)c23)-c2ccc(F)cc2C4=O)CC1`, the melting point lay in the range of 232 to 233 °C.

Take `CC(=O)SC(CC(=O)c1ccc(Cl)cc1)C(=O)O` (stereo not drawn): the melting point fell in the range of 68 to 69 °C.

The compound `CCOC(=O)C(Cc1c[nH]c2c(F)cccc12)(NC=O)C(=O)OCC` returned a melting point of 164 to 166 °C.

As to `CCOC(=O)CCCCCCn1cnc2ccncc21`, the melting point lay in the range of 64 to 65 °C.

`ON=C1CCC(c2ccccc2F)c2ccccc21` (stereo not drawn) came in with a melting point of 120 °C.

Compound `CCCC(=O)Oc1ccc(C(=O)Nc2ccc3cc(CN4CCCC4)cnc3c2C)cc1` came in with a melting point of 156 to 158 °C.

Take `COc1ccc(C(=O)Oc2cc(OCCO/N=C/c3ccc(C(C)(C)C)cc3)ccc2C(=O)O)cc1`: the melting point is 116 to 118 °C.

As for `CCOC(=O)c1cc2c(nc(C)n2C)c2c1CCC(OC)(c1ccccc1)O2` (stereo not drawn), the melting point lay within 176 to 178 °C.

`Cc1c(CC(=O)O)oc2ccc(C(C)(C)C)cc12`: the melting point lay within 169 to 170 °C.

Turning to `COc1ccccc1CN1CCC(=O)C(C(c2ccccc2)c2ccc(F)cc2)C1` (stereo not drawn), the melting point is 115 to 116 °C.

Turning to `CCCCN(CCCC)C(=O)NCCc1ccc(-c2csc(N)n2)cc1`, the melting point lay within 42 to 43 °C.

`O=C(Nc1ccccc1)C1=C(Nc2ccc(Cl)cc2)COC1=O` registered a melting point of 209 to 210 °C.

The compound `Cc1cc(C#N)sc1-c1ccc2c(c1)C(C)(C)OC(=O)N2` returned a melting point of 195 to 200 °C.

Regarding `CC(C)(OCc1cc2nc(C(F)(F)F)ccc2n1S(=O)(=O)c1ccccc1)C(=O)O`, the melting point lay in the range of 122 to 125 °C.

The compound `CS(=O)(=O)c1ccc(-n2nccc2-c2ccc(-c3ccco3)cc2)cc1F` displayed a melting point of 155 to 156 °C.

In turn, `CCc1nn(C2CCCCC2)c2cc(C(=O)O)ccc12` came in with a melting point of 196 to 197 °C.

On to `CCCn1c(=O)c2[nH]c(C(C)=Cc3ccccc3)nc2n(CCC)c1=O`, for which the melting point fell in the range of 194 to 196 °C.

`Cc1cc(=O)c(OCc2ccccc2)c(C=O)o1` had a melting point of 78 to 81 °C.

In the case of `NS(=O)(=O)c1cc2[nH]c(CCCCc3ccccc3)nc2cc1Cl`, the melting point lay within 176 to 180 °C.

The compound `Cc1c(Cl)cc(Cl)cc1Br` registered a melting point of 84 to 85 °C.

Regarding `N#Cc1ccc(-c2ncc(Br)cn2)cc1`, the melting point was determined as 222 °C.

`CCCCN(C=Nc1nnnc2c1ncn2C1CC(O)C(CO)O1)CCCC` (stereo not drawn) came in with a melting point of 107 to 109 °C.

`CCNc1nnc2ccc(-c3cccc(N(C)C(=O)CC)c3)nn12` returned a melting point of 198 to 199 °C.

The compound `CCOC(=O)CS(=O)(=O)c1ccc(C=C(C)c2ccc3c(c2)C(C)(C)CCC3(C)C)cc1` gave a melting point of 117 to 118 °C.

Consider `O=C(NCC(=O)N1c2ccccc2N(Cc2ccccc2)C(=O)[C@H]2CCC[C@H]21)c1ccc([N+](=O)[O-])cc1` (relative stereo), for which the melting point lay in the range of 231 to 233 °C.

Consider `NC(=O)NN=Cc1ccc(OCCc2coc(-c3ccccc3)n2)cc1`, for which the melting point was in the range of 221 to 226 °C.

`CN(C)c1ccc(-c2cccc(OC3SCC(O)C(O)C3O)c2)cn1` (stereo not drawn) gave a melting point of 119 °C.

`CCN(CC)CC1CCCCN1CCNC(=O)N1c2ccccc2C(=O)Nc2cccnc21` (stereo not drawn): the melting point was in the range of 175 to 176 °C.

`CC(=O)C(C(=O)c1ccccc1)=C1CCCN1` came in with a melting point of 106 to 108 °C.

`CCCC(Cc1ccc(OCCNC(=O)c2ccc(-c3ccccn3)cc2)cc1)C(=O)O` (stereo not drawn) had a melting point of 81 to 82.5 °C.

The compound `CCCc1ccc(C(=O)Nc2ccc3c(c2)nc(C)n3C)cc1` registered a melting point of 214 to 218 °C.

`CCC(C(=O)C(C)C(O)C(C)CCc1c(N)cc(C)c(O)c1C(=O)O)C1OC(CC)(C2CCC(O)(CC)C(C)O2)CC1C` (stereo not drawn) came in with a melting point of 223 to 225 °C.

As to `NC(=O)N1C(=O)C(C(=O)c2cc(Cl)cs2)c2cc(Cl)ccc21` (stereo not drawn), the melting point is 212 to 214 °C.

`COC(=O)Cc1cccc(NC(=O)NCC(=O)O)c1` yielded a melting point of 136 °C.

`COc1ccccc1CC(O)(Cc1cccs1)C(C)(C)C` (stereo not drawn) displayed a melting point of 74 to 75 °C.

For the compound `N#CNC(=NC1CCN(Cc2ccccc2)CC1)N1CCOCC1`, the melting point is 163 to 165 °C.

Take `Oc1ccc2cc(-c3noc4cc(O)ccc34)ccc2c1`: the melting point was in the range of 280 to 282 °C.

Consider `CC(=O)Oc1ccc(CC(=O)Nc2ncc(-c3ccc(OC(C)=O)cc3)nc2Cc2ccccc2)cc1`, for which the melting point was 225 to 227 °C.

With `COC(=O)Cn1nnnc1-c1ccc(Cl)cc1`, the melting point lay within 156 to 158 °C.

`Cc1ccc(S(=O)(=O)NN=C(Cc2ccc(OCc3ccccc3)cc2)c2cc(OCc3ccccc3)cc(OCc3ccccc3)c2)cc1` returned a melting point of 147 °C.

With `COc1cc(C(C)=O)ccc1OCCN1CCC(C(c2ccc(F)cc2)c2ccc(F)cc2)CC1`, the melting point lay in the range of 129 to 131 °C.

Regarding `CON=CNC(=O)c1ccc(C2=NOC(c3cc(Cl)cc(Cl)c3)(C(F)(F)F)C2)cc1C(C)(C)N` (stereo not drawn), the melting point was in the range of 144 to 146 °C.

As to `CC(=O)COc1cccc2ccc(OC(C)=O)nc12`, the melting point lay within 79 to 80 °C.

The compound `Fc1ccccc1C1=NCc2n[nH]cc2-c2ccc(Cl)cc21` registered a melting point of 208 to 210 °C.

With `N#CC(NC(=O)C(F)(F)C(F)(F)F)c1ccc(Cl)cc1` (stereo not drawn), the melting point stood at 118 °C.

As for `CC(C)N(CCc1c[nH]c2cc(Cl)ccc12)Cc1cccc(OCC(F)(F)C(F)(F)F)c1`, the melting point was 77 to 80.2 °C.

In turn, `O=C1CC(Cc2ccc(Cl)cc2)CN1` (stereo not drawn) had a melting point of 95 to 98 °C.

For the compound `COC(=O)N1C2C3C=CC(C3OC(C)(C)C)C2N1C(=O)OC` (stereo not drawn), the melting point stood at 86 °C.

In the case of `COc1ccc(C(=O)Nc2ccc(C(=O)N3CCCC3)cc2)cc1C12CC3CC(CC(C3)C1)C2`, the melting point lay in the range of 239 to 242 °C.

In turn, `COCN(C(=O)Nc1ccc(Cl)cc1)C(=O)c1c(Cl)cccc1Cl` returned a melting point of 122 °C.

`O=C1c2cccc3cccc(c23)C1Br` (stereo not drawn) displayed a melting point of 100 to 105 °C.

In the case of `Cc1cccc(Nc2nc(N(C)C)ncc2S(=O)(=O)NC(=O)NC(C)C)c1`, the melting point was in the range of 178 to 179 °C.

`CN1CCN(C(=O)OC2c3ccccc3C(=O)N2c2ccc3cccnc3n2)CC1` (stereo not drawn) had a melting point of 183 °C.

In turn, `COc1ccc(S(=O)(=O)N[C@@H](C(=O)OCc2ccccc2)C(C)C)cc1` yielded a melting point of 92 to 94 °C.

In turn, `CC(C)c1ccc(NC(=O)C2CCCc3c(OCc4ccccc4)ccc(F)c32)cn1` (stereo not drawn) displayed a melting point of 184 °C.

In the case of `NCC1CN(c2c(F)cc3c(=O)c(C(=O)O)cn(-c4nc(N)c(F)cc4F)c3c2Cl)C1`, the melting point fell in the range of 249 to 254 °C.

On to `COc1cc2c(O)c(S(=O)(=O)N(C)C)cnc2cc1C`, for which the melting point fell in the range of 295 to 297 °C.

The compound `Oc1ccc(-n2nc3ccc(Cl)cc3n2)c(O)c1` gave a melting point of 188 to 189 °C.

In turn, `C1=C(c2c[nH]c3ccccc23)CCN(CC2CCc3ccccc3O2)C1` (stereo not drawn) had a melting point of 171 to 173 °C.

Turning to `Cc1ccc2c(c1)c1cc(C(=O)N3CCOCC3)sc1n2C`, the melting point is 158 to 160 °C.

Consider `CCCn1c(=O)c(-c2ccccc2)c2n(c1=O)CCC(Sc1ccccc1)S2` (stereo not drawn), for which the melting point is 126 to 127 °C.

For `Oc1ccc(CCCCn2ccnc2)cc1`, the melting point fell in the range of 124 to 125 °C.

`c1ccc(CN2CCc3[nH]c4cccc(-c5ccccc5)c4c3CC2)cc1` displayed a melting point of 161 to 163 °C.

For `CC(=O)NC1CCCn2c1c(C)c1ccccc12` (stereo not drawn), the melting point lay within 158 to 160 °C.

Consider `COc1ccc(S(=O)(=O)Nc2cccnc2Nc2ccc(C(=O)O)cc2)cc1`, for which the melting point lay in the range of 248 to 250 °C.

`O=S1(=O)NC(C2CCCCC2)Nc2ccc(-c3ccccc3Cl)cc21` (stereo not drawn) came in with a melting point of 233 to 236 °C.

`Cc1sc(-c2ccccc2)nc1COc1ccc(CCCC(O)C#N)cc1` (stereo not drawn): the melting point was 101 to 102 °C.

With `CC(=O)CCN(CCNC(=O)OC(C)(C)C)c1nc2cc(Cl)ccc2o1`, the melting point is 145 to 148 °C.

In turn, `CCCOC1=CC(=O)C(C(=O)OCC)C(c2ccc(C)cc2)C1` (stereo not drawn) returned a melting point of 106 to 107 °C.

As to `CCCc1cc(C(=O)CCCC(=O)O)ccc1OC`, the melting point is 105 to 106 °C.

In turn, `O=C(Nc1ccc2ccc(-c3ccc(F)cc3)nc2n1)c1cccc(Br)c1` yielded a melting point of 210 °C.

`CC1CC1C(=O)Nc1ccc(-n2nc(C(F)(F)F)cc2C(F)(F)F)cc1` (stereo not drawn): the melting point lay within 172 to 173 °C.

Regarding `O=C(NCc1ccccn1)c1nc(-c2ccccc2)c(-c2ccc(=O)[nH]n2)s1`, the melting point lay within 221 to 222 °C.

The compound `O=C1COc2ccccc2O1` registered a melting point of 45 to 53 °C.

Regarding `CCCCc1nc(Cl)c(C(=O)O)n1Cc1ccc(-c2ccccc2-c2c(O)c(=O)c2=O)cc1`, the melting point came to 168 °C.

For `CC(C)(C)c1cc(-c2n[nH]c(=O)[nH]2)cc(C(C)(C)C)c1O`, the melting point was in the range of 276 to 280 °C.

The compound `C[Si](C)(C)C#Cc1c(F)c(F)c(F)c(C#C[Si](C)(C)C)c1F` came in with a melting point of 55 to 57 °C.

As for `CC1=Nc2c(F)c(F)c(F)c(F)c2SN1`, the melting point fell in the range of 290 to 291 °C.

`O=C(Nc1ncnc2c1ncn2C1OC(CO)C(O)C1O)c1ccccc1` (stereo not drawn) registered a melting point of 151 to 153 °C.

For the compound `CC(=O)SCCC(=O)N1[C@@H](c2ccccc2O)SC[C@H]1C(=O)N(c1ccccc1)[C@@H](C)C(=O)O`, the melting point lay in the range of 91 to 95 °C.

In the case of `CN1CC(C(=O)COC(=O)c2ccccc2)CC2c3cccc4[nH]cc(c34)CC21` (stereo not drawn), the melting point was 163 to 165 °C.

The record behind these values is a melting point compilation (Tetko et al.; mined from patent text by program, amines drawn as free bases though some values may be those of a salt).
